From ChEMBL document CHEMBL1145858, “Synthesis and structure-activity studies of novel orally active non-terpenoic 2,3-oxidosqualene cyclase inhibitors” (J Med Chem, 2003) come the findings set out here.

Data set [1] concerns the target T1, Lanosterol synthase (Homo sapiens, UniProt P48449).
T1 sequence (P48449 whole entry): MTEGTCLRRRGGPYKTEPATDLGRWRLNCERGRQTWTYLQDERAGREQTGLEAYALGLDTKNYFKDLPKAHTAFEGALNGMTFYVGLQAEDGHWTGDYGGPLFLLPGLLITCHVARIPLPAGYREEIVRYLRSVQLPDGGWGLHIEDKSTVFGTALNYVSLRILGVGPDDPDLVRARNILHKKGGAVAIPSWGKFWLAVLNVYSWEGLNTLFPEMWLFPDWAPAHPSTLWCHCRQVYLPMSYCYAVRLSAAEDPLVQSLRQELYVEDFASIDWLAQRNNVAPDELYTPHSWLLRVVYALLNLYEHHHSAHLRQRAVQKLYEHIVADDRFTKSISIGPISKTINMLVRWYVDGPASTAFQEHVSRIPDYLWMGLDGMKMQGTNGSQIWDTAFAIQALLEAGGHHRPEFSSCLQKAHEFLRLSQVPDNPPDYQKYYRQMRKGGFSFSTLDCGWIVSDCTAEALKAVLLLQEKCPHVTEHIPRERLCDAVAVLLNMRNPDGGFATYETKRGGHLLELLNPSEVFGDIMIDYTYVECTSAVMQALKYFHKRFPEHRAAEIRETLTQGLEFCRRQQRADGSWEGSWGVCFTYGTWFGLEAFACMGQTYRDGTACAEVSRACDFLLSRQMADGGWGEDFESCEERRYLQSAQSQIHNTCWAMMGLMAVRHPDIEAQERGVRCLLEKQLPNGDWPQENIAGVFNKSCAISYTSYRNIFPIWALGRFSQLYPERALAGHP

Data set [2] concerns the target T2, Lanosterol synthase (Homo sapiens) (UniProt P48449).
T2 sequence (whole entry): T1 sequence (P48449 whole entry)
As to conditions: at 100 nM.

For data set [3], the system named is Cricetinae gen. sp. As to the kind of experiment: […] effect on total plasma cholesterol(TC) level in fat-fed hamsters treated for 10 days at 200 umol/kg/day. It counts as functional, Cricetulus griseus.
Data set [4] has as its system Cricetinae gen. sp. The data set is described as follows: […] effect on LDL cholesterol (LDL-C) level in fat-fed hamsters treated for 10 days at 200 umol/kg/day. It counts as functional, Cricetulus griseus.
In data set [5] the target is T1, Lanosterol synthase. The data set is described as follows: In vitro inhibition of human 2,3-oxidosqualene cyclase.

With `C=CCN(C)CCCCCCOc1ccc(C(=O)c2ccc(Br)cc2)c(OC)c1`, the IC50 against Lanosterol synthase [1] is 4.6 nM. Regarding `CN(CCCCCCOc1ccc(C(=O)c2ccc(Br)cc2)cc1)CC1CC1`, the pKa in “physchem” was 9.37. With `C=CCN(C)CCCCCCOc1ccc(-c2nsc3cc(Br)ccc23)cc1`, the inhibition in data set [2] amounted to 5%.

Turning to `C=CCN(C)CCCCCCOc1ccc(C(=O)c2ccc(F)cc2)cc1.Cl`, the TC in the data set with Cricetinae gen. sp. [3] was -40%. In the data set with Cricetinae gen. sp. [4], the LDL-C was -24%. Moreover, the IC50 against Lanosterol synthase [1] is 6.7 nM.

For `C=CCN(C)CCCCCCOc1ccc(C(=O)c2ccc(Br)cc2)c(SC)c1`, at Lanosterol synthase [1], the IC50 is 6.2 nM. Consider `C=CCN(C)CCCCCCOc1ccc(C(=O)c2ccc(Br)cc2)cc1.O=C(O)/C=C/C(=O)O`, for which the TC in the data set on Cricetinae gen. sp. [3] is given as -27%. Further, the LDL-C in the data set on Cricetinae gen. sp. [4] is listed as -25%. The compound also displayed a pKa in “physchem” of 8.18. As to `CN(CCCCCCOc1ccc(C(=O)c2ccc(Br)cc2)cc1)C1CC1`, inhibition against Lanosterol synthase [1] was half-maximal at 35.3 nM (IC50). In “physchem”, this compound returned a pKa of 7.48. The corresponding values for `CN(CCCO)CCCCCCOc1ccc(C(=O)c2ccc(Br)cc2)cc1` are 15.7 nM and 9.05. In the case of `C=CCN(C)CCCCCCOc1ccc2c(-c3ccc(Br)cc3)csc2c1`, the IC50 against Lanosterol synthase [1] was found to be 5.6 nM.

Turning to `Br.C=CCN(C)CCCCCCOc1ccc(C(=O)c2ccccc2)cc1`, in the data set on Cricetinae gen. sp. [4], the LDL-C is listed as -12%. This compound registered an IC50 against Lanosterol synthase [1] of 22.5 nM. `C=CCN(C)CCCCCCOc1ccc2c(c1)OCC=C2c1ccc(Br)cc1` yielded an IC50 against Lanosterol synthase [1] of 11.4 nM. `C=CCN(C)CCCCCCOc1ccc2c(-c3ccc(Br)cc3)noc2c1` gave an inhibition in data set [2] of 21%. Take `C=CCN(C)CCCCCCOc1ccc2c(-c3ccc(Br)cc3)nsc2c1.O=C(O)/C=C/C(=O)O`: the TC in the data set on Cricetinae gen. sp. [3] was -36%. Further, the LDL-C in the data set on Cricetinae gen. sp. [4] is -33%. The corresponding values for `C=CCN(C)CCCCCCOc1ccc(C(=O)c2ccc(Br)cc2)c(F)c1.O=C(O)/C=C/C(=O)O` are -41% and -27%. Regarding `C=CCN(C)CCCCCCOc1ccc2c(c1)CON=C2c1ccc(Br)cc1.O=C(O)/C=C/C(=O)O`, the LDL-C in the data set with Cricetinae gen. sp. [4] is -3%. On Lanosterol synthase [5], `C=CCN(C)CCCCCCOc1ccc(C(=O)c2ccc([N+](=O)[O-])cc2)cc1` had a 50% inhibitory concentration (IC50) of 1.9 nM. On Lanosterol synthase [1], `C=CCN(C)CCCCCCOc1ccc(C(=O)c2ccc(Br)cc2)cn1` came in with an IC50 of 8.7 nM. Same read-out and setting: with `C=CCN(C)CCCCCCOc1ccc(C(=O)c2ccc(Br)cc2)c(NC)c1` the figure was 4.1 nM. In data set [2], `C=CCN(C)CCCCCCOc1ccc2c(-c3ccc(Br)cc3)coc2c1` came in with an inhibition of 14%. `C=CCN(C)CCCCCCOc1ccc2c(c1)CCN=C2c1ccc(Br)cc1` yielded a half-maximal inhibitory concentration (IC50) against Lanosterol synthase [1] of 7.9 nM. Same read-out and setting: the result for `C=CCN(C)CCCCCCOc1ccc(C(=O)c2ccc(Br)cc2)c(O)c1` reads 6.3 nM. Regarding `C=CCN(C)CCCCCCOc1ccc2c(-c3ccc(Br)cc3)nccc2c1.Cl`, the LDL-C in the data set on Cricetinae gen. sp. [4] is -14%. At Lanosterol synthase [1], `C=CCN(C)CCCCCCOc1ccc2c(c1)S(=O)(=O)N=C2c1ccc(Br)cc1` registered a half-maximal inhibitory concentration (IC50) of 7.8 nM.

By IC50 is commonly meant the point on the concentration scale where inhibition reaches its midpoint. High values mean a need for much substance, low ones inhibition by little substance. A word on the pKa: it is the negative logarithm of the acid dissociation constant. A higher pKa goes with a group that holds its proton tightly. In general, inhibition refers to the drop in the measured response relative to a control, in per cent.
